Experimental findings from paper PMC4999848 (Toxins, 2016) are described below.

One data set deals with T84 cells. In words: Deacetylation of 3/15ADON by T84 cells. In kind it is in vitro ADME, human. The conditions noted are these: T84, 37 °C, substrate 100 μM. On the procedure:
A498, Caco-2, T84 and HepG2 cells were used as models of human renal, small intestinal, colonic and hepatic cells, respectively. Cells were routinely grown in culture media (Dulbecco’s Modified Eagle Medium (DMEM), DMEM:F12 mixture and Minimum Essential Media (MEM) for A498/Caco-2, T84 and HepG2 cells, respectively) supplemented with 10% fetal calf serum and 1% antibiotics (streptomycin–penicillin solution). Cells were grown in 25 cm^2 ventilated flask maintained at 37 °C in a 5% CO2 incubator. Cells were routinely passed using trypsin-EDTA solution. For deacetylation experiments, cells were seeded onto 6-well plates at an initial density of 200,000 cells/cm^2. HepG2 and A498 were used 3–4 days post-seeding when confluence was reached. Caco-2 and T84 cells were let to differentiate for 10–14 days post-seeding before being used. In all cases, cells were washed three times with sterile phosphate buffer saline PBS^++ (PBS containing 100 mg/L of calcium and magnesium salts) before deacetylation assay.
Stock solutions of DON, 3ADON and 15ADON at 2 mg/mL were prepared in absolute ethanol and stored at −20 °C. […] In all cases, aliquots of the reaction solution were collected immediately (i.e., “time zero” sample) or after the indicated time period at 37 °C and analyzed by HPLC. […]

A further data set concerns the target T1, recombinant human CES1 (Homo sapiens, UniProt P23141).
T1 sequence (P23141 18-567): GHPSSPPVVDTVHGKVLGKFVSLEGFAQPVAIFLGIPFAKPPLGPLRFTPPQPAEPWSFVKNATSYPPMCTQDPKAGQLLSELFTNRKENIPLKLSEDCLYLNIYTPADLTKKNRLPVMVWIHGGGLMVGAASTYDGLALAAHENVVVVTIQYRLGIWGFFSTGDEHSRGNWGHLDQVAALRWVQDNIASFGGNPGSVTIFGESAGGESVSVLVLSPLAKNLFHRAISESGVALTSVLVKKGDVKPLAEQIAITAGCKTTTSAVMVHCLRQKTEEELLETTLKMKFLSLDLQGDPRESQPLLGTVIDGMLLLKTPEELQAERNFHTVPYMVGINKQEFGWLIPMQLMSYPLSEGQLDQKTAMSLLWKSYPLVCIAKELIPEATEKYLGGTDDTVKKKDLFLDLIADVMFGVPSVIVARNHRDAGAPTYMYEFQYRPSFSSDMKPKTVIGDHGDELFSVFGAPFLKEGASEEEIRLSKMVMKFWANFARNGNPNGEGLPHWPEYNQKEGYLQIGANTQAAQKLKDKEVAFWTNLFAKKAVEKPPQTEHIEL
Kind of data set: Deacetylation of 3/15ADON by recombinant CES1. The conditions noted are these: 5 μg/mL CES1, up to 24 h, data not shown. In kind it is in vitro ADME. Details: purchased R&D Systems. Here is the method: (§1) Stock solutions of DON, 3ADON and 15ADON at 2 mg/mL were prepared in absolute ethanol and stored at −20 °C. For deacetylation assay, 3- or 15ADON were incubated with cells, explants, bacteria or digestive enzymes after being diluted in PBS^++ at a final concentration of 100 μM. PBS^++ solution containing only ethanol (at 1.5% final concentration) or DON (at 100 μM) were used in parallel as negative and positive control, respectively. For cells and explants, deacetylation assay take place in 6-well plates, wells being filled with 2 mL of PBS^++ containing either ethanol, DON, 3- or 15ADON. For fecal bacteria and digestive enzyme assay, deacetylation assay was conducted in 2 mL Eppendorf tubes filled with 1.5 mL of PBS^++ containing either ethanol, DON, 3- or 15ADON. In vitro intestinal digestion by luminal enzymes was performed using porcine enzymes from Sigma-Aldrich and physiological conditions. […] In all cases, aliquots of the reaction solution were collected immediately (i.e., “time zero” sample) or after the indicated time period at 37 °C and analyzed by HPLC. […]
(§2) Deacetylation was monitoring both in term of disappearance of 3- or 15ADON and formation of DON. […] Quantification was based on calibration with the corresponding standard using Millinium Software (Waters, Saint Quentin Falavier, France).

The target of the next data set is T2, pancreatic lipase (Sus scrofa, UniProt P00591).
T2 construct: purchased Sigma-Aldrich
T2 sequence (P00591 whole entry): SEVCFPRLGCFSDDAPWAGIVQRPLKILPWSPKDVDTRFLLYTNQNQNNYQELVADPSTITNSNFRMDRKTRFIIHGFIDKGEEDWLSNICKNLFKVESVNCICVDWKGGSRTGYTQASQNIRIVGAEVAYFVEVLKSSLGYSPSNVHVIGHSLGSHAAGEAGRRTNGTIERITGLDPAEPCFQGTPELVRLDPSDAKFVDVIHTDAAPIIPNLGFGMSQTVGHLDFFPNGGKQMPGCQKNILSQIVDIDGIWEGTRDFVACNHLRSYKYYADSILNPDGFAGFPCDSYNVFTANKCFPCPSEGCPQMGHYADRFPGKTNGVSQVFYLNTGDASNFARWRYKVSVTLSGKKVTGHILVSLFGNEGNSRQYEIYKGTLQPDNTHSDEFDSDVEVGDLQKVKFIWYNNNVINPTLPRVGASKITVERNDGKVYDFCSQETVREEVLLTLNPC
Kind of data set: Deacetylation of 3/15ADON by pancreatic lipase. In kind it is in vitro ADME, porcine. The conditions noted are these: lipase 0.75 mg/mL, PBS pH 7.4, 37 °C, substrate 100 μM. On the procedure: as §1, §2

Values joined by “and” are separate entries in the source; they are usually repeats but may differ in a detail not shown here. Identical values can stand only once. “Also recorded” adds a separate entry of the source.

Regarding `CC(=O)O[C@@H]1C[C@]2(C)[C@@]3(CO)[C@H](O)C(=O)C(C)=C[C@H]3O[C@H]1[C@@]21CO1` [3ADON, 3-acetyldeoxynivalenol], the “Disappearance of 3/15ADON, specific activity” value with T84 cells was 80 pmol/min/mg and 80 ± 24 pmol/min/mg; at pancreatic lipase it was 48 ± 21 pmol/min/mg. Further, on recombinant human CES1, the “Deacetylation activity of CES1 on 3/15ADON” value is reported as “failed at observing any deacetylation activity; also recorded: unable to cause the deacetylation”.

For the compound `CC(=O)OC[C@]12[C@H](O)C(=O)C(C)=C[C@H]1O[C@@H]1[C@H](O)C[C@@]2(C)[C@]12CO2` [15ADON, 15-acetyldeoxynivalenol], the “Disappearance of 3/15ADON, specific activity” value in the data set with T84 cells is 98 pmol/min/mg and 98 ± 29 pmol/min/mg; on pancreatic lipase it was 42 ± 18 pmol/min/mg. In addition, the “Deacetylation activity of CES1 on 3/15ADON” value on recombinant human CES1 is on record as “failed at observing any deacetylation activity; also recorded: unable to cause the deacetylation”.
